# Reference: patent US20060159676A1, “Methods for modulating angiogenesis, lymphangiogenesis, and apoptosis with apelin compositions” (priority 2005, published 2006)
# Tests used:
# [1] = test system: VEGF mRNA expression; conditions: apelin-soaked bead, frog embryo
# Description: Beads were microsurgically implanted in an avascular region, the posterior lateral mesoderm, of stage 24-26 embryos. Embryos were cultured in 0.2× MMR until stage 35-37, at which time they were prepared for whole mount in situ hybridization analysis as described in Example 2. The embryonic vascular system was visualized using an antisense probe directed against transcripts encoding the Xenopus vascular marker, erg (Baltzinger et al., 1999, Dev. Dyn. 216:420-33).
# [2] = test system: CAM blood vessels; test: Chick chorioallantoic membrane (CAM) assay; assay type: in vivo, chicken; conditions: 50 ng on filter disc, three days, vs PBS
# Description: Chicken eggs were incubated at 37° C. in a humidified chamber. On day 10 of development, a small window was made in the outer shell of the egg, and the CAM was released from its attachment to the inner shell membrane. A larger window was then made in the egg to allow for addition of the filter paper containing growth factor. Filter discs (3 MM Whatman) of 7-8 mm diameter were pretreated with 10 μl of 0.1% cortisone acetate (Sigma) solution to avoid inflammation of the CAM. The filter discs were air dried prior to application of growth factors. […] After air-drying, the filter discs were placed on the CAM, and eggs were returned to the incubator for three days. Filter discs and the attached CAM were then excised, washed with PBS, trimmed to the size of the disc, and photographed for quantitative analysis (FIGS. 7A and 7B). The number of vessel branch points was determined using a blind protocol. The results are shown as the mean of three independent experiments ±s.e.m. (FIG. 7C).
# [3] = test system: BAE/APJ#2 cells; conditions: 10 ng/ml in bottom chamber, 16 hours
# Description: Bovine aortic endothelial cells (BAE) were cultured in DMEM supplemented with 10% fetal bovine serum (FBS) and penicillin/streptomycin. For generation of stable cell lines expressing APJ, the mouse APJ coding region was cloned into the pcDNA 3.1 vector downstream of the CMV promoter, in frame with a myc epitope at the C-terminal end of the protein, and upstream of the neomycin gene. Bovine aortic endothelial (BAE) cells were transfected with this construction using the Superfect transfection kit (Qiagen) and selected for resistance to G418 (600 μg/ml). Colonies were isolated and screened using RT-PCR for expression of mouse APJ and also by immunocytochemistry for expression of the myc epitope.
# Cell migration assays were performed using Transwell cell culture migration chambers (Becton Dickinson) with 8 micron pore size. BAE/APJ#2 cells were plated in serum free conditions in 100 μl at a concentration of 1×10^5 ml in the upper chamber of the migration chamber. Following cell attachment to the membrane, 10 ng/ml of growth factor was added to the bottom chamber, in a total volume of 0.5 ml. […] Cells attached to the membrane in the lower chamber were stained with DAPI, and 3 random fields were counted for each experimental condition.
# [4] = test system: bEnd3 cells; conditions: apelin 10 ng/ml in bottom chamber; VEGF 50 ng/ml as comparison
# Description: Cell migration assays were performed using the bEnd3 cells in Transwell cell culture migration chambers (FIG. 20). The cells were plated in serum free medium in the upper chamber of the migration chamber. […] The cells that migrated to the bottom chamber were visualized by DAPI stain of the nuclei of the cells (Panels A, B, and C).
# [5] = test system: endothelial cells; conditions: apelin 10 ng/ml, after 48 hours serum starvation; VEGF 50 ng/ml as comparison
# Description: To determine what effect, if any, apelin expression has on apoptosis, TUNEL assays were performed. […] Cells were stained with a DAPI stain (FIG. 21, Panels A, B, and C) or in the TUNEL assay which stains for broken DNA, indicating cells undergoing apoptosis (FIG. 21, Panels D, E, and F).
substance,measurement,setting,value
Apelin-13,VEGF expression in the vicinity of the bead,[1],no upregulation of VEGF expression
same,blood vessel formation,[2],increased
same,leakage of blood vessels,[2],increased
same,endothelial cell migration (cells per field),[3],promotes endothelial cell migration
same,endothelial cell migration (chemotaxis),[4],acts as chemotactic agent for the endothelial cells to the same extent as VEGF
same,apoptosis (TUNEL staining),[5],"anti-apoptotic effect on endothelial cells, to the same extent as VEGF"
